Structures are written as SMILES. Structures can show the parent of a compound that is named as a salt. Where two headings read alike, the source gives them in different places. Bounds are passed on as bounds.

Data set [1] relates to lung cancer-derived A549 cells. The data set can be described thus: MTT assay, cancer cell viability and growth inhibition (A549). Particulars: for IC50: read-out: GROWTH INHIBITORY CONCENTRATION (GIC50), A549, 72 hours, MTT; for CELLULAR VIABILITY (%): 72 hours, relative to untreated cells.
Protocol: (§1) Human breast cancer-derived MCF7 cells and lung cancer-derived A549 cells were used as a test system.
(§2) MCF7 cells and A549 cells cultured in a DMEM containing 10% fetal bovine serum were respectively dispensed at a cell density of about 5×10^3 cells/well on a 96-well plate, followed by culturing for about 24 hours.
(§3) The resulting formazane crystal was dissolved in dimethyl sulfoxide (DMSO), and absorbance of the solution was measured at 560 nm.
In data set [2] the test system is Human breast cancer-derived MCF7 cells. The data set can be described thus: MTT assay, cancer cell viability and growth inhibition (MCF7). The settings on record: for IC50: read-out: GROWTH INHIBITORY CONCENTRATION (GIC50), MCF7, 72 hours, MTT; for CELLULAR VIABILITY (%): 72 hours, relative to untreated cells.
Protocol: as §1, §2, §3
The test system is the same in data set [3]. The settings on record: 72 h.
Protocol: as §1, §2, §3
The subject of data set [4] is lung cancer-derived A549 cells. The settings on record: human, 72 h.
Protocol: as §1, §2, §3

In the case of `CCCC(=O)O` [Butyric acid, butyric acid], the IC50 was found to be 5.2 mM in data set [1] and 2.2 mM in data set [2]. Also, the “CELLULAR VIABILITY (%)” value in data set [3] (2 mM) came out at 53.9%; in data set [3] (10 mM), 22.3%; in data set [4] (2 mM), 78.6%; in data set [4] (10 mM), 28.3%.

`CN(C)C(=N)NC(=N)N` [Metformin butyrate, N,N-dimethyl imidodicarbonimidic diamide butyrate]: the “CELLULAR VIABILITY (%)” value is 57.7% in data set [1] (A549, 2 mM); 11.7% in data set [1] (A549, 10 mM); “less than 20%” in data set [1] (A549, 10 mM, listed as metformin butyrate); 45.5% in data set [2] (MCF7, 2 mM); 19.9% in data set [2] (MCF7, 10 mM); “less than 20%” in data set [2] (MCF7, 10 mM, listed as metformin butyrate). Besides, the IC50 in data set [1] is 2.5 mM; in data set [2] it was 1.6 mM.

Regarding `CN(C)C(=N)N=C(N)N` [Metformin hydrochloride, metformin hydrochloride], the “CELLULAR VIABILITY (%)” value in data set [1] (A549, 2 mM, hydrochloride) was 63.5%; in data set [1] (A549, 10 mM, hydrochloride), 39.6%; in data set [2] (MCF7, 2 mM, hydrochloride) it was 86.5%; in data set [2] (MCF7, 10 mM, hydrochloride), 73.6%. In addition, the IC50 in data set [1] is 3.6 mM; in data set [2], above 10 mM.

These data come from patent publication US20120135952A1, “BUTYRIC ACID SALT OF N,N-DIMETHYL IMIDOCARBON IMIDIC DIAMIDE, METHOD OF PREPARING SAME, AND PHARMACEUTICAL COMPOSITIONS AND COMBINATIONS CONTAINING SAME” (Hanall Biopharma Co., Ltd., priority 2009, published 2012).
